# System: not given
# Conditions: not given
row,SMILES,melting point [°C]
1,"CCN(c1ccc(C(=O)O)cc1)c1ccc2c(c1)C(C)(C)CCC2(C)C [Example 2, 4-(Ethyl(5,5,8,8-tetramethyl-5,6,7,8-tetrahydronaphthalen-2-yl)amino)benzoic acid]",247.8 to 250.6
2,"CCN(c1ccc(C(=O)O)c(F)c1)c1ccc2c(c1)C(C)(C)CCC2(C)C [Example 9, 4-(Ethyl(5,5,8,8-tetramethyl-5,6,7,8-tetrahydronaphthalen-2-yl)amino)-2-fluorobenzoic acid]",252.4 to 256.8
3,"CCN(c1ccc(C(=O)O)c(F)c1)c1cc2c(cc1C)C(C)(C)CCC2(C)C [Example 10, 4-(Ethyl(3,5,5,8,8-pentamethyl-5,6,7,8-tetrahydronaphthalen-2-yl)amino)-2-fluorobenzoic acid]",241.4 to 243.8
4,"CCN(c1ccc2c(c1)C(C)(C)CCC2(C)C)c1ccc(C(=O)O)cn1 [Example 1, 6-(ethyl(5,5,8,8-tetramethyl-5,6,7,8-tetrahydronaphthalen-2-yl)amino)nicotinic acid]",230 to 232

# Second part, the molecule after the results:
row,melting point [°C],SMILES
1,213.1 to 214.4,"CCN(c1ccc2c(c1)C(C)(C)CCC2(C)C)c1cnc(C(=O)O)cn1 [Example 7, 5-(Ethyl(5,5,8,8-tetramethyl-5,6,7,8-tetrahydronaphthalen-2-yl)amino)pyrazine-2-carboxylic acid]"
2,231.9 to 233.1,"CCN(c1ncc(C(=O)O)cn1)c1cc2c(cc1C)C(C)(C)CCC2(C)C [Example 6, 2-(Ethyl(3,5,5,8,8-pentamethyl-5,6,7,8-tetrahydronaphthalen-2-yl)amino)pyrimidine-5-carboxylic acid]"
3,203.6 to 205.1,"CCN(c1cnc(C(=O)O)cn1)c1cc2c(cc1C)C(C)(C)CCC2(C)C [Example 8, 5-(Ethyl(3,5,5,8,8-pentamethyl-5,6,7,8-tetrahydronaphthalen-2-yl)amino)pyrazine-2-carboxylic acid]"
4,252.4 to 256.8,"CCN(c1ccc(C(=O)O)cc1)c1cc2c(cc1C)C(C)(C)CCC2(C)C [Example 3, 4-(Ethyl(3,5,5,8,8-pentamethyl-5,6,7,8-tetrahydronaphthalen-2-yl)amino)benzoic acid]"

# Molecular target: hRXRβ (Homo sapiens, UniProt P28702)
# Conditions: read-out: EC50 for the hRXRβ isoform; cited from earlier work
# Sequence of hRXRβ (P28702 whole entry, canonical isoform): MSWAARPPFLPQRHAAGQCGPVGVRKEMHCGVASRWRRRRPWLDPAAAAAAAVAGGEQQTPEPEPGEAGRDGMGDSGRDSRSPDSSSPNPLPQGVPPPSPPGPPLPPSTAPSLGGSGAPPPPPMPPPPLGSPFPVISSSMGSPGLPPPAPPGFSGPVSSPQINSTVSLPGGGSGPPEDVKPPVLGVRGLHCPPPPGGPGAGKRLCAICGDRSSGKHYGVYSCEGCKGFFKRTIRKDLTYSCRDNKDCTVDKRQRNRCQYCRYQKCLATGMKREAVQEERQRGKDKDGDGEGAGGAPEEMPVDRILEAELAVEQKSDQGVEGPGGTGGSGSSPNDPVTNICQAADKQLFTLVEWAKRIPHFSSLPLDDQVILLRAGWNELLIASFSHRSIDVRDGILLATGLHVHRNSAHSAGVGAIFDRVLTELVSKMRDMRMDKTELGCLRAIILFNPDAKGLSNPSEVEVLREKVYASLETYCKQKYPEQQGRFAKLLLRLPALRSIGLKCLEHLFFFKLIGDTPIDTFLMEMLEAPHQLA
row,SMILES,EC50 [nM]
1,Cc1cc2c(cc1-c1cc(/C=C/C(=O)O)ccc1O)C(C)(C)CCC2(C)C [CD3254],~10
